Assay results: the supplement of paper PMC13380429

Experiments:
[1] = test system: Calu-3; assay: drug sensitivity score (DSS) for viability; higher = more toxic; extreme values may be limits of the assay; details: 72 h
[2] = test system: Caco-2; assay: as above; details: 72 h
[3] = test system: Vero E6; assay: as above; details: 72 h
[4] = test system: HepG2; assay: as above; details: 72 h
[5] = test system: U2OS; assay: as above; details: 72 h
[6] = test system: Calu-3; assay: relative viability EC50 (midpoint between 100% and the lowest measured viability); higher = less toxic; details: 72 h
[7] = test system: Caco-2; assay: as above; details: 72 h
[8] = test system: Vero E6; assay: as above; details: 72 h
[9] = test system: HepG2; assay: as above; details: 72 h
[10] = test system: U2OS; assay: as above; details: 72 h
[11] = test system: Calu-3; assay: cell viability relative to DMSO; higher = less toxic; details: 72 h
[12] = test system: Caco-2; assay: as above; details: 72 h
[13] = test system: Vero E6; assay: as above; details: 72 h
[14] = test system: HepG2; assay: as above; details: 72 h
[15] = test system: U2OS; assay: as above; details: 72 h
[16] = test system: A549-ACE2; assay: drug-induced phospholipidosis relative to tamoxifen; higher = more phospholipidosis
[17] = test system: A549-ACE2 infected with SARS-CoV-2; assay: cell count relative to DMSO; higher = less toxic; details: 24 h
[18] = test system: A549-ACE2 infected with SARS-CoV-2; assay: morphology score (similarity to uninfected cells); higher = more like uninfected cells; details: 24 h
[19] = test system: A549-ACE2 infected with SARS-CoV-2; assay: SARS-CoV-2 infection rate relative to DMSO; higher = more infection; details: 24 h

C=CCN1CCN(c2nc3ccccc3nc2C#N)CC1 [3-AQC]
Details	drug sensitivity score	relative viability EC50 [µM]
[1]	0	–
[2]	0	–
[3]	0	–
[4]	0	–
[5]	0	–
[6]	–	> 10
[7]	–	> 10
[8]	–	> 10
[9]	–	> 10
[10]	–	> 10

cell viability [%]
Details	[11]	[12]	[13]	[14]	[15]
1 nM	94.7	102	94.9	94	100
10 nM	98	99.9	102	104	101
100 nM	101	103	92.6	96.6	101
1000 nM	103	101	104	97.5	97.9
10000 nM	98.1	95.2	108	94.2	97.1

CCCCCC(C)N (centres undefined) [tuaminoheptane]
Details	drug sensitivity score	relative viability EC50 [µM]
[1]	0	–
[2]	0	–
[3]	0	–
[4]	4.1	–
[5]	0	–
[6]	–	> 10
[7]	–	> 10
[8]	–	> 10
[9]	–	> 10
[10]	–	> 10

cell viability [%]
Details	[11]	[12]	[13]	[14]	[15]
1 nM	90.3	90.7	96.4	103	100
10 nM	98.6	89.6	103	94.9	101
100 nM	109	95.9	97.9	83	97.5
1000 nM	107	96.8	95	88.8	99.9
10000 nM	104	87.6	94.4	90.8	96.4

CC(=O)Oc1cccc(C(=O)O)c1OC(C)=O [dipyrocetyl]
Details	drug sensitivity score	relative viability EC50 [µM]
[1]	0	–
[2]	0	–
[3]	0	–
[4]	0	–
[5]	0	–
[6]	–	> 10
[7]	–	> 10
[8]	–	> 10
[9]	–	> 10
[10]	–	> 10

cell viability [%]
Details	[11]	[12]	[13]	[14]	[15]
1 nM	93.8	99.9	101	96	103
10 nM	92.9	90.2	105	95.9	96.8
100 nM	85.2	100	103	97.8	101
1000 nM	99.8	97	99.4	89.5	101
10000 nM	86.8	92	101	96.9	101

CC(C)c1ccc(C(=O)N=C(N)N)cc1S(C)(=O)=O [cariporide]
Details	drug sensitivity score	relative viability EC50 [µM]
[1]	0	–
[2]	0	–
[3]	0	–
[4]	0	–
[5]	0	–
[6]	–	> 10
[7]	–	> 10
[8]	–	> 10
[9]	–	> 10
[10]	–	> 10

cell viability [%]
Details	[11]	[12]	[13]	[14]	[15]
1 nM	102	109	102	102	100
10 nM	96.7	107	101	84.4	98.2
100 nM	93.6	102	106	89.7	100
1000 nM	96.3	89.7	108	98	96.1
10000 nM	106	107	92.3	95.6	97

c1ccc(-c2ccc(C(c3ccccc3)n3ccnc3)cc2)cc1 (centres undefined) [bifonazole]
Details	drug sensitivity score	relative viability EC50 [µM]
[1]	0	–
[2]	1.2	–
[3]	0	–
[4]	0	–
[5]	0	–
[6]	–	> 10
[7]	–	> 10
[8]	–	> 10
[9]	–	> 10
[10]	–	> 10

drug-induced phospholipidosis [%], [16]
Details	0.3 µM	0.833333 µM	3.33333 µM	6.66667 µM	10 µM	30 µM
24 h	-0.45	-9.45	-4.39	3.56	6	40.1
48 h	3.19	-4.19	2.93	5.02	14.4	44.7
72 h	2.27	-1.31	4.12	5.49	19.7	–

Details	SARS-CoV-2 infection rate, [19] [%]	cell count, [17] [%]	cell viability, [11] [%]	cell viability, [12] [%]	cell viability, [13] [%]	cell viability, [14] [%]	cell viability, [15] [%]	morphology score, [18]
1 nM	–	–	98.4	98	85.9	98.2	96.9	–
10 nM	–	–	95	99.7	91.2	97.1	95.9	–
100 nM	–	–	106	96.1	86.5	91.8	97.2	–
0.3 µM	91	99	–	–	–	–	–	0.26
1000 nM	–	–	97.1	94.9	91.5	98.6	95.2	–
3 µM	103	112	–	–	–	–	–	-0.04
10 µM	106	111	–	–	–	–	–	0.19
10000 nM	–	–	99.1	78.7	100	93.6	94.7	–
30 µM	89	102	–	–	–	–	–	0.57

CCCCCCCCCC(=O)OCCN1CCN(CCCN2c3ccccc3Sc3ccc(C(F)(F)F)cc32)CC1 [fluphenazine-decanoate]
Details	drug sensitivity score	relative viability EC50 [µM]
[1]	0	–
[2]	0	–
[3]	0	–
[4]	0	–
[5]	0	–
[6]	–	> 10
[7]	–	> 10
[8]	–	> 10
[9]	–	> 10
[10]	–	> 10

cell viability [%]
Details	[11]	[12]	[13]	[14]	[15]
1 nM	101	111	104	95.5	97.2
10 nM	95.8	84.8	105	97.4	100
100 nM	98.5	96.3	96.3	96.9	99
1000 nM	107	98	106	93.7	100
10000 nM	91.6	92.1	105	108	96.9

O=C1O[C@H]([C@@H](O)CO)C(O)=C1O [ASCORBIC ACID]
Details	drug sensitivity score	relative viability EC50 [µM]
[1]	0	–
[2]	0	–
[3]	0	–
[4]	0	–
[5]	0	–
[6]	–	> 10
[7]	–	> 10
[8]	–	> 10
[9]	–	> 10
[10]	–	> 10

cell viability [%]
Details	[11]	[12]	[13]	[14]	[15]
1 nM	105	103	99.7	99.6	109
10 nM	95.5	95.9	112	98.3	98.8
100 nM	110	100	106	108	99.8
1000 nM	96.3	100	103	93.4	100
10000 nM	108	98.4	103	101	102

N[C@@H](Cc1ccc(O)cc1)C(=O)O [plovamer-acetate]
Details	drug sensitivity score	relative viability EC50 [µM]
[1]	0	–
[2]	4.2	–
[3]	0	–
[4]	0	–
[5]	0	–
[6]	–	> 10
[7]	–	> 10
[8]	–	> 10
[9]	–	> 10
[10]	–	> 10

cell viability [%]
Details	[11]	[12]	[13]	[14]	[15]
1 nM	97.9	119	106	87.2	99.1
10 nM	98.5	83.9	102	94.4	94.8
100 nM	105	84.4	96.3	93	102
1000 nM	104	90.7	104	90.1	93.3
10000 nM	102	92.1	95.5	80.1	97.6

CC(C)NCC(O)c1ccc([N+](=O)[O-])cc1 (centres undefined) [nifenalol]
Details	drug sensitivity score	relative viability EC50 [µM]
[1]	0	–
[2]	0	–
[3]	0	–
[4]	0	–
[5]	0	–
[6]	–	> 10
[7]	–	> 10
[8]	–	> 10
[9]	–	> 10
[10]	–	> 10

cell viability [%]
Details	[11]	[12]	[13]	[14]	[15]
1 nM	101	87.2	107	98.3	93.8
10 nM	96.8	99.9	106	101	100
100 nM	103	92.7	102	103	102
1000 nM	98.4	85.1	93.3	108	99.2
10000 nM	108	94	89.6	106	99.7

Cc1ccsc1C(=CCCN1CCC[C@@H](C(=O)O)C1)c1sccc1C [tiagabine]
Details	drug sensitivity score	relative viability EC50 [µM]
[1]	0	–
[2]	0	–
[3]	0	–
[4]	0	–
[5]	0	–
[6]	–	> 10
[7]	–	> 10
[8]	–	> 10
[9]	–	> 10
[10]	–	> 10

cell viability [%]
Details	[11]	[12]	[13]	[14]	[15]
1 nM	117	93.5	98.2	96	101
10 nM	103	97.9	100	103	94.2
100 nM	99.8	102	92.4	97.3	101
1000 nM	98.1	92.3	104	103	98
10000 nM	100	106	106	98.6	94.2

CCOC(=O)C1=C(C)NC(C)=C(C(=O)OC)[C@@H]1c1cccc([N+](=O)[O-])c1 (racemic) [nitrendipine]
Details	drug sensitivity score	relative viability EC50 [µM]
[1]	0	–
[2]	0	–
[3]	0	–
[4]	0	–
[5]	0	–
[6]	–	> 10
[7]	–	> 10
[8]	–	> 10
[9]	–	> 10
[10]	–	> 10

cell viability [%]
Details	[11]	[12]	[13]	[14]	[15]
1 nM	89.5	81.3	102	108	98.5
10 nM	92.3	92.4	106	102	96.9
100 nM	105	96.2	98.5	89	98.7
1000 nM	86.5	90.2	105	104	95.4
10000 nM	87.1	82.9	103	92.7	95.6

COc1cc(CCc2cc(NC(=O)c3ccc(N4CC(C)NC(C)C4)cc3)n[nH]2)cc(OC)c1 (centres undefined) [AZD4547]
Details	drug sensitivity score	relative viability EC50 [µM]
[1]	0	–
[2]	0.2	–
[3]	0	–
[4]	5	–
[5]	4.5	–
[6]	–	> 10
[7]	–	> 10
[8]	–	> 10
[9]	–	1.99
[10]	–	1.61

cell viability [%]
Details	[11]	[12]	[13]	[14]	[15]
1 nM	101	87.5	95.7	95.7	101
10 nM	107	93.8	98.1	105	94.8
100 nM	93.8	99.3	92.5	87.3	95.2
1000 nM	99.4	104	96.2	90.7	88.2
10000 nM	99.8	80.4	100	37	49.5

NCCC(=O)N[C@@H](Cc1c[nH]cn1)C(=O)O [carnosine]
Details	drug sensitivity score	relative viability EC50 [µM]
[1]	2.8	–
[2]	6.6	–
[3]	5.2	–
[4]	4.8	–
[5]	4.1	–
[6]	–	3.08
[7]	–	2.08
[8]	–	2.74
[9]	–	3.22
[10]	–	3.07

cell viability [%]
Details	[11]	[12]	[13]	[14]	[15]
1 nM	95	99.5	94.3	111	96
10 nM	93.4	97.8	95.3	101	97.2
100 nM	104	92.3	95	97	92.3
1000 nM	99.4	88.6	95.5	101	99.1
10000 nM	48.6	15.4	17.9	12	28.7

CC(C)CCNC(=O)[C@H](CC(C)C)NC(=O)[C@H]1O[C@@H]1C(=O)O [loxistatin-acid]
Details	drug sensitivity score	relative viability EC50 [µM]
[1]	0	–
[2]	0	–
[3]	0	–
[4]	0	–
[5]	0	–
[6]	–	> 10
[7]	–	> 10
[8]	–	> 10
[9]	–	> 10
[10]	–	> 10

cell viability [%]
Details	[11]	[12]	[13]	[14]	[15]
1 nM	101	103	103	93.4	99.4
10 nM	95.8	95.6	107	98.3	98.7
100 nM	101	93.1	99.4	104	101
1000 nM	91.5	99	102	103	101
10000 nM	105	100	101	104	105
